The record followed here is patent US7098340B2, “Benzyl sulfonamide derivatives” (Warner Lambert Company LLC, priority 2003, dated 2006).

Molecules are shown by their SMILES.

This test concerns the target T1, androgen receptor (Homo sapiens, UniProt P10275).
T1 sequence (P10275 1-920 Q868H): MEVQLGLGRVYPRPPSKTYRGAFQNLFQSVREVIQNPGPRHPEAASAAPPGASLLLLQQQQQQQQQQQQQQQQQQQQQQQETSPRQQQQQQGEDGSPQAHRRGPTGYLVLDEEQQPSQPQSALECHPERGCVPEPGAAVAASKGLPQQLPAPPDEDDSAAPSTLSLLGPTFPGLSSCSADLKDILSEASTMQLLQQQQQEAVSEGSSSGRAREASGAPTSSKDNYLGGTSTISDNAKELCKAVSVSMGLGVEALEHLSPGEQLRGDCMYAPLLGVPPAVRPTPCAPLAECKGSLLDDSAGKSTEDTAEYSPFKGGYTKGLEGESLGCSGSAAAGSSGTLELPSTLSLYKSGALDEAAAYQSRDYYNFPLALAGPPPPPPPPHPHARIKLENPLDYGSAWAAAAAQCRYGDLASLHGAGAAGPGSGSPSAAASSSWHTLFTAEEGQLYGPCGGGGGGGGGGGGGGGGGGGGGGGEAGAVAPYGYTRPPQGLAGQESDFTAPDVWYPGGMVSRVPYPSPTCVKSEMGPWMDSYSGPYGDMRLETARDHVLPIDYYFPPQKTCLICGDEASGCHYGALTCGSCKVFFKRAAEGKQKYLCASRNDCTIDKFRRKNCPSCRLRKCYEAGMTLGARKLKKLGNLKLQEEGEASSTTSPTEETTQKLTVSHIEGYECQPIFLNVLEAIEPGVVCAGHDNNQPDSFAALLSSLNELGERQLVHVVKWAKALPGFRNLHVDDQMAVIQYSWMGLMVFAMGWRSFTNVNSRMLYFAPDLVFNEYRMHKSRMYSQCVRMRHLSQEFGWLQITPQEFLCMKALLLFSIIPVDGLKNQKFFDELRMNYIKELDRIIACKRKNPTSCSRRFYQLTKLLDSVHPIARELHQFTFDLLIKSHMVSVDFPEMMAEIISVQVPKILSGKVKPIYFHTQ
The experiment in a line: AR Antagonist Cell Assay (MMTV-luciferase reporter, DHT-stimulated). The note with it: MDA-MB453-MMTV clone 54-19 cells; antagonism of 100 pM DHT, 17 hr, luciferase readout. The format is cell-based. On the procedure:
The compounds ability to antagonize the effects of androgen on the androgen receptor were determined in the protocol described immediately below.
Experimental Procedure for AR Antagonist Cell Assay
Cell line: MDA-MB453-MMTV clone 54–19. This cell line is a stable transfected cell line with MDA-MB453 cell background (human breast tumor cell expressing high level of androgen receptor). A MMTV minimal promoter containing ARE was first cloned in front of a firefly luciferase reporter gene. Then the cascade was cloned into transfection vector pUV120puro. Electroporation method was used for transfecting MDA-MB-453 cell. Puromycin resistant stable cell line was selected.
Cell Culture Media and Reagents:
Culture medium: DMEM (high glucose, Gibco cat #: 11960-044), 10% FBS, and 1% L-glutamine
Plating medium: DMEM (phenol red free), 10% charcoal treated HyClone serum, 1% L-glutamine
Assay medium: DMEM (phenol red free), 1% charcoal treated HyClone serum, 1% L-glutamine, and 1% penicillin/streptomycin
3× luciferase buffer: 2% beta-mercaptoethanol, 0.6% ATP, 0.0135% luciferine in cell lysis buffer
• 1. Cells are maintained in culture medium, splitting cells when they reach 80–90% confluence • 2. To test compounds, 10,000 cells/well are plated to opaque 96 cell culture plate in 100 ul/well plating medium, culture for overnight at 37° C. in cell culture incubator • 3. Carefully remove plating medium, then add 80 ul/well of pre-warmed assay medium, add 10 ul/well testing compound (final concentration at 10 uM or 1 uM), incubate at 37° C. for 30 minutes • 4. Add 10 ul/well freshly prepared DHT (final concentration at 100 pM) to each well, incubate at 37° C. for 17 hr (overnight) • 5. Add 50 ul/well 3× luciferase buffer, incubate at room temperature for 5 minutes, then count on Luminometer.
The fold induction over background by 100 pM DHT in the absence of testing compounds is standardized as 100% and experimental result is expressed as percentage of inhibition by testing compounds.
One may read the IC50 as the concentration that inhibits the measured activity by half. High values mean weaker potency in that assay, low ones greater potency in that assay. With `O=c1cc(C(F)(F)F)c2cc(Cc3ccc(S(=O)(=O)Nc4cccc(-c5cnco5)c4)cc3)ccc2o1` [Example 144, N-(3-Oxazol-5-ylphenyl)-4-(2-oxo-4-trifluoromethyl-2H-chromen-6-ylmethyl)-benzenesulfonamide], half-maximal inhibition (IC50) was put at 2.17 µM.

`CCOC(=O)C(NS(=O)(=O)c1ccc(Cc2ccc3[nH]c(=O)cc(C(F)(F)F)c3c2)cc1)c1ccccc1` (centres unmarked) [Example 89, [4-(2-Oxo-4-trifluoromethyl-1,2-dihydroquinolin-6-ylmethyl)-benzenesulfonylamino]-phenylacetic acid ethyl ester] registered an IC50 greater than 10 µM.

Consider `O=c1cc(C(F)(F)F)c2cc(Cc3ccc(S(=O)(=O)Nc4cccc5cccnc45)cc3)ccc2[nH]1` [Example 30, 4-(2-Oxo-4-trifluoromethyl-1,2-dihydroquinolin-6-ylmethyl)-N-quinolin-8-ylbenzenesulfonamide], for which the IC50 was greater than 10 µM.

Compound `O=c1cc(C(F)(F)F)c2cc(Cc3ccc(S(=O)(=O)Nc4cccc(OC(F)(F)F)c4)cc3)ccc2[nH]1` [Example 42, 4-(2-Oxo-4-trifluoromethyl-1,2-dihydroquinolin-6-ylmethyl)-N-(3-trifiuoromethoxyphenyl)-benzenesulfonamide] returned an IC50 greater than 10 µM.

For the compound `O=c1cc(C(F)(F)F)c2cc(Cc3ccc(S(=O)(=O)Nc4cc(F)c(F)c(F)c4)cc3)ccc2[nH]1` [Example 35, 4-(2-Oxo-4-trifluoromethyl-1,2-dihydroquinolin-6-ylmethyl)-N-(3,4,5-trifluorophenyl)-benzenesulfonamide], the 50% inhibitory concentration (IC50) was greater than 10 µM.

`CC(C)(C)CCNS(=O)(=O)c1ccc(Cc2ccc3[nH]c(=O)cc(C(F)(F)F)c3c2)cc1` [Example 54, N-(3,3-Dimethylbutyl)-4-(2-oxo-4-trifluoromethyl-1,2-dihydroquinolin-6-ylmethyl)-benzenesulfonamide] yielded an IC50 greater than 10 µM.

The compound `O=c1cc(C(F)(F)F)c2cc(Cc3ccc(S(=O)(=O)Nc4ccc5c(c4)CCC5)cc3)ccc2[nH]1` [Example 20, N-Indan-5-yl-4-(2-oxo-4-trifluoromethyl-1,2-dihydroquinolin-6-ylmethyl)-benzenesulfonamide] yielded an IC50 greater than 10 µM.

In turn, `O=c1cc(C(F)(F)F)c2cc(Cc3ccc(S(=O)(=O)Nc4ccccc4Br)cc3)ccc2[nH]1` [Example 40, N-(2-Bromophenyl)-4-(2-oxo-4-trifluoromethyl-1,2-dihydroquinolin-6-ylmethyl)-benzenesulfonamide] yielded an IC50 of 5.61 µM.

On to `O=c1cc(C(F)(F)F)c2cc(Cc3ccc(S(=O)(=O)Nc4ccc5ncccc5c4)cc3)ccc2[nH]1` [Example 19, 4-(2-Oxo-4-trifluoromethyl-1,2-dihydroquinolin-6-ylmethyl)-N-quinolin-6-ylbenzenesulfonamide], for which the IC50 is greater than 10 µM.

In turn, `Cc1ccc(F)c(CNS(=O)(=O)c2ccc(Cc3ccc4[nH]c(=O)cc(C(F)(F)F)c4c3)cc2)c1Cl` [Example 84, N-(2-Chloro-6-fluoro-3-methylbenzyl)-4-(2-oxo-4-trifluoromethyl-1,2-dihydroquinolin-6-ylmethyl)-benzenesulfonamide] registered an IC50 greater than 10 µM.

`O=c1cc(C(F)(F)F)c2cc(Cc3ccc(S(=O)(=O)NCCc4cccs4)cc3)ccc2o1` [Example 176, 4-(2-Oxo-4-trifluoromethyl-2H-chromen-6-ylmethyl)-N-(2-thiophen-2-ylethyl)benzenesulfonamide]: inhibition was half-maximal at 6 µM (IC50).

Compound `COc1cccc(NS(=O)(=O)c2ccc(Cc3ccc4[nH]c(=O)cc(C(F)(F)F)c4c3)cc2)c1` [Example 50, N-(3-Methoxyphenyl)-4-(2-oxo-4-trifluoromethyl-1,2-dihydroquinolin-6-ylmethyl)-benzenesulfonamide] gave an IC50 greater than 10 µM.

`O=c1cc(C(F)(F)F)c2cc(Cc3ccc(S(=O)(=O)NCc4cc(C(F)(F)F)ccc4F)cc3)ccc2o1` [Example 204, N-(2-Fluoro-5-trifluoromethylbenzyl)-4-(2-oxo-4-trifluoromethyl-2H-chromen-6-ylmethyl)benzene-sulfonamide] registered an IC50 greater than 10 µM.

`O=c1cc(C(F)(F)F)c2cc(Cc3ccc(S(=O)(=O)NC4CCCC4)cc3)ccc2o1` [Example 158, N-Cyclopentyl-4-(2-oxo-4-trifluoromethyl-2H-chromen-6-ylmethyl)benzenesulfonamide] registered an IC50 of 6.5 µM.

Turning to `O=c1cc(C(F)(F)F)c2cc(Cc3ccc(S(=O)(=O)Nc4ccccc4N4CCCCC4)cc3)ccc2o1` [Example 146, 4-(2-Oxo-4-trifluoromethyl-2H-chromen-6-ylmethyl)-N-(2-piperidin-1-ylphenyl)-benzenesulfonamide], the IC50 was 4.82 µM.

Consider `O=c1cc(C(F)(F)F)c2cc(Cc3ccc(S(=O)(=O)Nc4ccc(-n5ccc(C(F)(F)F)n5)cc4)cc3)ccc2o1` [Example 155, 4-(2-Oxo-4-trifluoromethyl-2H-chromen-6-ylmethyl)-N-[4-(3-trifluoromethylpyrazol-1-yl)phenyl]benzenesulfonamide], for which inhibition was half-maximal at 6.5 µM (IC50). The IC50 values of the last two compounds are within 1.5-fold of each other.

Compound `CSc1n[nH]c(NS(=O)(=O)c2ccc(Cc3ccc4[nH]c(=O)cc(C(F)(F)F)c4c3)cc2)c1C#N` [Example 32, N-(4-Cyano-5-methylsulfanyl-2H-pyrazol-3-yl)-4-(2-oxo-4-trifluoromethyl-1,2-dihydroquinolin-6-ylmethyl)-benzenesulfonamide] came in with an IC50 of 8.02 µM.

For `O=c1cc(C(F)(F)F)c2cc(Cc3ccc(S(=O)(=O)Nc4ccc(-n5ccc(C(F)(F)F)n5)cc4)cc3)ccc2[nH]1` [Example 49, 4-(2-Oxo-4-trifluoromethyl-1,2-dihydroquinolin-6-ylmethyl)-N-[4-(3-trifluoromethylpyrazol-1-yl)phenyl]-benzenesulfonamide], the IC50 was greater than 10 µM.

In the case of `O=c1cc(C(F)(F)F)c2cc(Cc3ccc(S(=O)(=O)NCC(c4ccccc4)c4ccccc4)cc3)ccc2[nH]1` [Example 92, N-(2,2-Diphenylethyl)-4-(2-oxo-4-trifluoromethyl-1,2-dihydroquinolin-6-ylmethyl)-benzenesulfonamide], the IC50 was 2.71 µM. That is a single-digit micromolar value.

The compound `N#Cc1cccc(NS(=O)(=O)c2ccc(Cc3ccc4[nH]c(=O)cc(C(F)(F)F)c4c3)cc2)c1` [Example 16, N-(3-Cyanophenyl)-4-(2-oxo-4-trifluoromethyl-1,2-dihydroquinolin-6-ylmethyl)-benzenesulfonamide] returned an IC50 of 2.02 µM.

The compound `O=c1cc(C(F)(F)F)c2cc(Cc3ccc(S(=O)(=O)Nc4cccc(-c5cnco5)c4)cc3)ccc2[nH]1` [Example 38, N-(3-Oxazol-5-ylphenyl)-4-(2-oxo-4-trifluoromethyl-1,2-dihydroquinolin-6-ylmethyl)benzenesulfonamide] registered an IC50 greater than 10 µM.

Regarding `O=c1cc(C(F)(F)F)c2cc(Cc3ccc(S(=O)(=O)N[C@H]4[C@@H]5CC[C@@H](C5)[C@H]4CO)cc3)ccc2[nH]1` (stereo in doubt) [Example 88, N-(3-Hydroxymethyl-bicyclo[2.2.1]hept-2-yl)-4-(2-oxo-4-trifluoromethyl-1,2-dihydroquinolin-6-ylmethyl)-benzenesulfonamide], the IC50 is greater than 10 µM.

On to `COc1cc(NS(=O)(=O)c2ccc(Cc3ccc4oc(=O)cc(C(F)(F)F)c4c3)cc2)cc(OC)c1` [Example 141, N-(3,5-Dimethoxyphenyl)-4-(2-oxo-4-trifluoromethyl-2H-chromen-6-ylmethyl)-benzenesulfonamide], for which the IC50 was found to be 3.24 µM.
